Assay results as given in paper PMC10065799, “High-throughput profiling of sequence recognition by tyrosine kinases and SH2 domains using bacterial peptide display” (eLife, 2023).

Assays:
Assay in all cases: pTyr-Var library bacterial peptide display kinase screen (enrichment scores)
[1] = biological target: T1, c-Abl kinase domain (Mus musculus, UniProt P00520); type: biochemical;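 note: log2 fold change in enrichment of variant over reference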
T1 sequence (P00520 242-493 limits assumed): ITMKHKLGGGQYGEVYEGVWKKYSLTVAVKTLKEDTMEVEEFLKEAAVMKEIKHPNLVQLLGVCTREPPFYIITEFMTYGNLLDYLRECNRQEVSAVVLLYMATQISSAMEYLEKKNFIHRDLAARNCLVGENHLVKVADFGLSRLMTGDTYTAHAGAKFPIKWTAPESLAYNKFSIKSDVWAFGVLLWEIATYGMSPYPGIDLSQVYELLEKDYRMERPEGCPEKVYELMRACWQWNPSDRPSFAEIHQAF

[2] = biological target: c-Src kinase domain (Homo sapiens, UniProt P12931); type: biochemical; conditions: sheet "Src";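 note: log2 fold change in enrichment of variant over reference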
[3] = test system: EPHB2 kinase domain; type: biochemical, human; conditions: sheet EPHB2; effect of variant peptide relative to its reference peptide in the pTyr-Var library screen (enrichment scores);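 note: log2 fold change in enrichment of variant over reference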
[4] = test system: EPHB1 kinase domain; type: biochemical, human; conditions: for Screen: sheet EPHB1, effect of the variant peptide relative to its reference peptide in the pTyr-Var library screen (enrichment scores)
[5] = test system: Fer kinase domain; type: biochemical, mouse; conditions: sheet "Fer";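 note: log2 fold change in enrichment of variant over reference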
[6] = sheet "Abl", effect of variant peptide relative to its reference peptide in pTyr-Var library screen (enrichment)
[7] = effect of the variant peptide relative to its reference peptide in the pTyr-Var library screen
[8] = variant peptide versus its reference peptide in the pTyr-Var library screen
[9] = fig5-data2, sheet "Abl", Screen for the variant/reference peptide pair, pTyr-Var library
[10] = value of the variant peptide against its reference peptide in the pTyr-Var library screen with Fer
[11] = variant peptide relative to its reference peptide, pTyr-Var library screen enrichment

AALRLYHVSDS [VIL1_Y256_K254R]
Screen [1, 6]: 2.11

ACQSLYGGFVE [MVD_Y164_R161Q]
Screen [2, 7]: 0.09261
Screen [3]: 1.328

ADGLEYPRTGL [MMUT_Y287_S288P]
Screen [3]: -1.339

AGARMYGVLPW [PLP1_Y207_D203G]
Screen [2, 8]: -0.8816
Screen [3]: -1.831

ARKCKYFKKHE [NFIX_Y40_R38C]
Screen [1, 9]: 1.494

AVARMYGVLPW [PLP1_Y207_D203V]
Screen [2, 8]: -1.597
Screen [3]: -2.007

DFFDLYGGQKF [PTPN11_Y66_E69Q_YF]
Screen [2, 8]: 1.294

DGPVNYEEFVQ [CALM2_Y139_Q136P]
Screen [4]: -0.2324

DPNQQYFIAMD [TBX15_Y159_H156N_YF]
Screen [1, 6]: -1.397

DTQNSYWCATS [TSC1_Y304_G305W]
Screen [1, 6]: 1.58

DWWQEYVLNES [TGM1_Y267_R264W]
Screen [2, 8]: 1.594

EAGKVYLKAAM [CBFB_Y96_P100A]
Screen [1, 9]: 0.4405

EALDFYGEVRI [PTEN_Y155_T160I]
Screen [5, 10]: 1.122

EAVKNYTEKRG [PBRM1_Y672_D674E]
Screen [1, 9]: -0.8395

EDKFMYLEFPQ [PTEN_Y240_F241L]
Screen [2, 8]: -1.097

EELLRYAIVTP [POC5_Y37_H36R]
Screen [5, 10]: -3.509
Screen [4]: -2.287

EFRFIYMAVQH [PTPN11_Y515_Q510E_YF]
Screen [2, 8]: 0.0506

ELAVNYQEQAS [SLC9A9_Y591_I589V]
Screen [1, 6]: 1.481

EWLRRYLKNGK [HLA-C_Y195_E197K]
Screen [1, 9]: -0.1377

FCRHNYGVGES [HLA-DRB1_Y112_V115G_YF]
Screen [3]: -2.304

FLLRVYSIFSK [SGCE_Y38_T36R]
Screen [2, 8]: -1.068

FQKDVYNIPPS [NEDD9_Y177_D178N_YF]
Screen [2, 8]: -0.2537
Screen [3]: -2.279

FSSLGYPLPEG [ZSWIM4_Y87_P89L_YF]
Screen [1, 6]: 1.474

FVSLIYTNFEA [GSTP1_Y109_I105V_YF]
Screen [2, 7]: 0.3433
Screen [5, 10]: 0.7121

GCKNRYDEDKP [THAP1_Y14_K16E]
Screen [1, 6]: 1.101

GDEVEYMSVSF [GCLC_Y53_L55S]
Screen [5, 10]: -1.292

GEFFRYLAEVA [YWHAG_Y133_D129E_YF]
Screen [1, 6]: 3.326

GLTSTYVGIRK [ROBO1_Y932_A933V]
Screen [2, 8]: -1.42

GMTLSYLFWEP [NDUFS8_Y74_R77W]
Screen [5, 10]: 3.343

GQLIVYAPPEW [CNTN6_Y315_F314V]
Screen [2, 7]: 1.101
Screen [3]: -0.7681
Screen [5, 10]: -1.619

HCFAAYFQQGD [GPI_Y351_R347C]
Screen [1, 9]: 0.663

HEEDNYIEMIP [NWD2_Y566_L569M]
Screen [3]: -0.6493
Screen [4]: -0.841

HGEAVYSRDCV [XPC_Y676_R671H]
Screen [2, 8]: 0.7041
Screen [1, 6]: 1.031

HKNNNYEPSLF [BRCA2_Y57_N60S]
Screen [4]: -1.049

HPAGNYSLSSV [ARFGAP3_Y473_Q468H]
Screen [1, 9]: -0.2234

IVRSLYEDQED [VHL_Y185_L188Q]
Screen [1, 6]: 2.774

IVTLKYPIEHG [ACTB_Y69_L65V]
Screen [1, 9]: -1.416

KACNPYKPPGP [TTN_Y25826_T25821K]
Screen [1, 6]: -2.971

KAEQLYIGVTV [EFHC2_Y509_E507Q]
Screen [2, 7]: 0.06421
Screen [5, 10]: 0.3011

KFADVYVGICL [B3GALNT1_Y269_E266A]
Screen [2, 7]: -1.369
Screen [5, 10]: -1.445

KGEDFYFVTCH [FHL1_Y149_C150Y_YF]
Screen [1, 9]: -2.007

KGEDFYSVTCH [FHL1_Y149_C150S]
Screen [2, 7]: 2.7
Screen [5, 10]: 2.793

KMKGEYFRFLA [YWHAG_Y130_D129E_YF]
Screen [2, 8]: 0.3869
Screen [1, 6]: -2.114

KSFDMYSGDVM [FAM3D_Y122_A118S]
Screen [4]: 0.345

KTGDFYDLFGG [PTPN11_Y63_N58K_YF]
Screen [2, 8]: -0.7427
Screen [5, 11]: -1.345

LAVNPYGPPDL [TTN_Y22579_P22584L]
Screen [1, 6]: -1.7

LDLPGYCLLRE [CCDC116_Y291_P293L]
Screen [1, 9]: -2.162
Screen [4]: 0.4195

LEQDEYALHSH [HADHB_Y244_R247H]
Screen [3]: -1.049

LFMGDYVGRGF [PPP2CA_Y86_D88G_YF]
Screen [2, 8]: 1.98
Screen [4]: 1.681

LHQSTYQCFDV [SLC7A14_Y693_R695C_YF]
Screen [2, 8]: 0.927
Screen [5, 11]: 1.307
Screen (variant relative to reference peptide, measured in the pTyr-Var library screen) ([4]; sheet "EPHB1", variant seq vs reference seq, bacterial peptide display enrichment): 1.159
